Measurements as given in paper PMC9416004, “A Versatile Class of 1,4,4-Trisubstituted Piperidines Block Coronavirus Replication In Vitro” (Pharmaceuticals, 2022).
Where two headings read alike, the source gives them in different places.

How the values were obtained:
in vitro = details: human
HCoV-229E = test: Cytopathic effect (CPE) reduction assay with HCoV-229E in HEL cells; format: cell-based, human coronavirus 229E; details: for EC50: Human coronavirus 229E, 120 h, HCoV-229E-infected HEL cells, five days at 35 °C; for Selectivity Index MTS: ratio of CC50 to EC50-MTS; for Selectivity Index MTS / Selectivity Index Microscopy: only values of 10 or higher shown; for Selectivity Index Microscopy: ratio of MCC to EC50-microscopy
[1] = test system: human embryonic lung (HEL) fibroblast cells; details: mock-infected HEL cells; microscopically visible alterations in cell morphology
[2] = protection against virus-induced CPE by MTS cell viability assay, read-out: Antiviral EC50 MTS
[3] = protection against virus-induced CPE by microscopic scoring, read-out: Antiviral EC50 Microscopy

## COC(=O)C[C@H](NC(=O)OC(C)(C)C)C(=O)N(C)C1(C(=O)NCc2ccccc2)CCN(Cc2ccccc2)CC1 [Compound 19]
In vitro
  CC50: 18 ± 2 µM
HCoV-229E; [2]
  EC50: > 100 µM
HCoV-229E; [3]
  EC50: 14 ± 1 µM
[1]
  Cytotoxicity MCC (minimal cytotoxic concentration): 100 µM

## CC(C)(C)OC(=O)NCC(=O)N(Cc1ccccc1)C1(C(=O)NCc2ccccc2)CCN(Cc2ccccc2)CC1 [Compound 39]
In vitro
  CC50: 49 ± 1 µM
HCoV-229E; [2]
  EC50: 15 ± 2 µM
HCoV-229E; [3]
  EC50: 11 µM
[1]
  Cytotoxicity MCC (minimal cytotoxic concentration): 100 µM

## COC(=O)C[C@H](NC(=O)OC(C)(C)C)C(=O)N(Cc1ccc(Cl)cc1)C1(C(=O)NCc2ccccc2)CCN(Cc2ccccc2)CC1 [Compound 25]
In vitro
  CC50: 12 µM
HCoV-229E; [2]
  EC50: 3.2 ± 0.2 µM
HCoV-229E; [3]
  EC50: 3.1 µM
[1]
  Cytotoxicity MCC (minimal cytotoxic concentration): 50 µM

## COC(=O)C[C@H](NC(=O)OC(C)(C)C)C(=O)N(Cc1ccc(F)cc1)C1(C(=O)NCc2ccccc2)CCN(Cc2cc(F)cc(F)c2)CC1 [Compound 10]
In vitro
  CC50: 10 ± 2 µM
HCoV-229E; [2]
  EC50: > 100 µM
HCoV-229E; [3]
  EC50: 15 ± 1 µM
[1]
  Cytotoxicity MCC (minimal cytotoxic concentration): 70 µM

## COC(=O)C[C@H](NC(=O)OC(C)(C)C)C(=O)N(C1CC1)C1(C(=O)NCc2ccccc2)CCN(Cc2ccccc2)CC1 [Compound 21]
In vitro
  CC50: 14 ± 3 µM
HCoV-229E; [2]
  EC50: > 100 µM
HCoV-229E; [3]
  EC50: 12 ± 0.4 µM
[1]
  Cytotoxicity MCC (minimal cytotoxic concentration): 50 µM

## COC(=O)C[C@H](NC(=O)OC(C)(C)C)C(=O)N(Cc1ccc(F)cc1)C(C)(C)C(=O)NCc1ccccc1 [Compound 3]
In vitro
  CC50: > 100 µM
HCoV-229E; [2]
  EC50: > 100 µM
HCoV-229E; [3]
  EC50: > 100 µM
[1]
  Cytotoxicity MCC (minimal cytotoxic concentration): >100 µM

## COC(=O)CNC(=O)C1(N(Cc2ccccc2)C(=O)[C@H](CC(=O)OC)NC(=O)OC(C)(C)C)CCN(Cc2ccccc2)CC1 [Compound 17]
In vitro
  CC50: > 100 µM
HCoV-229E; [2]
  EC50: 75 ± 8 µM
HCoV-229E; [3]
  EC50: 68 ± 3 µM
[1]
  Cytotoxicity MCC (minimal cytotoxic concentration): >100 µM

## COC(=O)C[C@H](NC(=O)OC(C)(C)C)C(=O)N(Cc1ccccc1)C1(C(=O)NC(C)(C)C)CCN(Cc2ccccc2)CC1 [Compound 15, Methyl(S)-4-(benzyl(1-benzyl-4-tert-butylcarbamoylpiperidin-4-yl)amino)-3-tert-butoxycarbonylamino-4-oxobutanoate]
In vitro
  CC50: 78 ± 7 µM
HCoV-229E; [2]
  EC50: 25 µM
HCoV-229E; [3]
  EC50: 25 µM
[1]
  Cytotoxicity MCC (minimal cytotoxic concentration): >100 µM

## COC(=O)C[C@H](NC(=O)OC(C)(C)C)C(=O)N(CCNc1ccccc1)C1(C(=O)NCc2ccccc2)CCN(Cc2ccccc2)CC1 [Compound 29]
In vitro
  CC50: 36 ± 9 µM
HCoV-229E; [2]
  EC50: 3.2 ± 0.4 µM
HCoV-229E; [3]
  EC50: 3 ± 0.1 µM
HCoV-229E
  Selectivity Index MTS: 11
  Selectivity Index Microscopy: 25
[1]
  Cytotoxicity MCC (minimal cytotoxic concentration): 75 µM

## CC(C)(C)OC(=O)N[C@@H](CC(=O)O)C(=O)N(Cc1ccc(F)cc1)C1(C(=O)NCc2ccccc2)CCN(Cc2ccccc2)CC1 [Compound 43]
In vitro
  CC50: > 100 µM
HCoV-229E; [2]
  EC50: > 100 µM
HCoV-229E; [3]
  EC50: > 100 µM
[1]
  Cytotoxicity MCC (minimal cytotoxic concentration): >100 µM

## CC(C)(C)OC(=O)N[C@@H](CC(N)=O)C(=O)N(Cc1ccc(F)cc1)C1(C(=O)NCc2ccccc2)CCN(Cc2ccccc2)CC1 [Compound 41]
In vitro
  CC50: 82 ± 13 µM
HCoV-229E; [2]
  EC50: 64 ± 8 µM
HCoV-229E; [3]
  EC50: 54 ± 4 µM
[1]
  Cytotoxicity MCC (minimal cytotoxic concentration): >100 µM

## COC(=O)C[C@H](NC(=O)OC(C)(C)C)C(=O)N(Cc1ccc(F)cc1)C1(C(=O)NCc2ccccc2)CCN(CCc2ccccc2)CC1 [Compound 11]
In vitro
  CC50: 38 ± 2 µM
HCoV-229E; [2]
  EC50: 4.4 ± 0.8 µM
HCoV-229E; [3]
  EC50: 3.2 ± 0.1 µM
HCoV-229E
  Selectivity Index Microscopy: 31
[1]
  Cytotoxicity MCC (minimal cytotoxic concentration): 100 µM

## COC(=O)C[C@H](NC(=O)OC(C)(C)C)C(=O)N(Cc1ccc(F)cc1)C1(C(=O)NCc2ccccc2)CC[N+](C)(Cc2ccccc2)CC1 (stereo partly shown) [Compound 8]
In vitro
  CC50: > 100 µM
HCoV-229E; [2]
  EC50: > 100 µM
HCoV-229E; [3]
  EC50: > 100 µM
[1]
  Cytotoxicity MCC (minimal cytotoxic concentration): >100 µM

## COC(=O)C[C@H](NC(=O)OC(C)(C)C)C(=O)N(Cc1ccc(F)cc1)C1(C(=O)NCc2ccccc2)CCN(C2CCCCC2)CC1 [Compound 6]
In vitro
  CC50: 85 ± 9 µM
HCoV-229E; [2]
  EC50: 14 ± 1 µM
HCoV-229E; [3]
  EC50: 22 ± 9 µM
[1]
  Cytotoxicity MCC (minimal cytotoxic concentration): 100 µM

## COC(=O)C[C@H](NC(=O)OC(C)(C)C)C(=O)N(Cc1ccc(C)cc1)C1(C(=O)NCc2ccccc2)CCN(Cc2ccccc2)CC1 [Compound 22]
In vitro
  CC50: 31 ± 10 µM
HCoV-229E; [2]
  EC50: 4.3 ± 0.6 µM
HCoV-229E; [3]
  EC50: 3.1 µM
HCoV-229E
  Selectivity Index Microscopy: 24
[1]
  Cytotoxicity MCC (minimal cytotoxic concentration): 75 µM

## COC(=O)C[C@H](N)C(=O)N(Cc1ccccc1)C1(C(=O)NCc2ccccc2)CCN(Cc2ccccc2)CC1 [Compound 32]
In vitro
  CC50: > 100 µM
HCoV-229E; [2]
  EC50: 62 ± 7 µM
HCoV-229E; [3]
  EC50: 55 ± 3 µM
[1]
  Cytotoxicity MCC (minimal cytotoxic concentration): >100 µM

## COC(=O)C[C@H](NC(=O)OC(C)(C)C)C(=O)N(Cc1ccc(F)cc1)C1(C(=O)NCc2ccccc2)CCN(c2ccccc2)CC1 [Compound 7]
In vitro
  CC50: > 100 µM
HCoV-229E; [2]
  EC50: > 100 µM
HCoV-229E; [3]
  EC50: 43 ± 3 µM
[1]
  Cytotoxicity MCC (minimal cytotoxic concentration): >100 µM

## COc1ccc(CC(NC(=O)OC(C)(C)C)C(=O)N(Cc2ccccc2)C2(C(=O)NCc3ccccc3)CCN(Cc3ccccc3)CC2)cc1 (stereo not shown) [Compound 51, Tert-butyl(1-(benzyl(1-benzyl-4-benzylcarbamoylpiperidin-4-yl)amino)-3-(4-methoxyphenyl)-1-oxopropan-2-yl)carbamate]
In vitro
  CC50: > 100 µM
HCoV-229E; [2]
  EC50: 4.8 ± 0.4 µM
HCoV-229E; [3]
  EC50: 8.2 ± 1.9 µM
HCoV-229E
  Selectivity Index Microscopy: ≥12
[1]
  Cytotoxicity MCC (minimal cytotoxic concentration): ≥100 µM

## COc1ccc(CN2CCC(C(=O)NCc3ccccc3)(N(Cc3ccccc3)C(=O)C(Cc3ccccc3)NC(=O)OC(C)(C)C)CC2)cc1 (stereo not shown) [Compound 62, Tert-butyl(1-(benzyl(4-benzylcarbamoyl-1-(4-methoxybenzyl)piperidin-4-yl)amino)-1-oxo-3-phenylpropan-2-yl)carbamate]
In vitro
  CC50: 28 µM
HCoV-229E; [2]
  EC50: 4.3 ± 0.4 µM
HCoV-229E; [3]
  EC50: 5.9 ± 1.8 µM
[1]
  Cytotoxicity MCC (minimal cytotoxic concentration): 40 µM

## CC(C)(C)OC(=O)N[C@@H](CC(=O)O)C(=O)N(Cc1ccccc1)C1(C(=O)NCc2ccccc2)CCN(Cc2ccccc2)CC1 [Compound 44]
In vitro
  CC50: > 100 µM
HCoV-229E; [2]
  EC50: > 100 µM
HCoV-229E; [3]
  EC50: > 100 µM
[1]
  Cytotoxicity MCC (minimal cytotoxic concentration): >100 µM

## COC(=O)CCC(=O)N(Cc1ccc(F)cc1)C1(C(=O)NCc2ccccc2)CCN(Cc2ccccc2)CC1 [Compound 30]
In vitro
  CC50: 64 ± 3 µM
HCoV-229E; [2]
  EC50: 13 ± 2 µM
HCoV-229E; [3]
  EC50: 13 µM
[1]
  Cytotoxicity MCC (minimal cytotoxic concentration): 100 µM

## COC(=O)CC[C@H](NC(=O)OC(C)(C)C)C(=O)N(Cc1ccc(F)cc1)C1(C(=O)NCc2ccccc2)CCN(Cc2ccccc2)CC1 [Compound 40]
In vitro
  CC50: 50 ± 3 µM
HCoV-229E; [2]
  EC50: 11 ± 4 µM
HCoV-229E; [3]
  EC50: 4.8 ± 1.7 µM
HCoV-229E
  Selectivity Index Microscopy: 21
[1]
  Cytotoxicity MCC (minimal cytotoxic concentration): 100 µM

## COC(=O)C[C@H](NC(=O)OCc1ccccc1)C(=O)N(C1CC1)C1(C(=O)NCc2ccccc2)CCN(Cc2ccccc2)CC1 [Compound 37]
In vitro
  CC50: 3.6 ± 0.1 µM
HCoV-229E; [2]
  EC50: > 100 µM
HCoV-229E; [3]
  EC50: 3 ± 0.1 µM
[1]
  Cytotoxicity MCC (minimal cytotoxic concentration): 11 µM

## COC(=O)C[C@H](NC(=O)OCc1ccccc1)C(=O)N(CCNc1ccccc1)C1(C(=O)NCc2ccccc2)CCN(CCc2ccccc2)CC1 [Compound 58, Methyl(S)-4-((4-benzylcarbamoyl-1-phenethylpiperidin-4-yl)(2-(phenylamino)ethyl)amino)-3-benzyloxycarbonylamino-4-oxobutanoate]
In vitro
  CC50: 20 ± 4 µM
HCoV-229E; [2]
  EC50: 5.4 ± 1.4 µM
HCoV-229E; [3]
  EC50: 7.9 ± 1.9 µM
[1]
  Cytotoxicity MCC (minimal cytotoxic concentration): 24 µM

## COC(=O)C[C@H](NC(=O)OCc1ccccc1)C(=O)N(Cc1ccccc1)C1(C(=O)NCc2ccccc2)CCN(CCc2ccc(F)cc2)CC1 [Compound 56, Methyl(S)-4-(benzyl(4-benzylcarbamoyl-1-(4-fluorophenethyl)piperidin-4-yl)amino)-3-benzyloxycarbonylamino-4-oxobutanoate]
In vitro
  CC50: 23 ± 3 µM
HCoV-229E; [2]
  EC50: 6 ± 1.9 µM
HCoV-229E; [3]
  EC50: 7.6 ± 1.8 µM
[1]
  Cytotoxicity MCC (minimal cytotoxic concentration): 32 µM

## CC(C)(C)OC(=O)N[C@@H](Cc1ccc(O)cc1)C(=O)N(Cc1ccccc1)C1(C(=O)NCc2ccccc2)CCN(Cc2ccccc2)CC1 [Compound 48]
In vitro
  CC50: > 100 µM
HCoV-229E; [2]
  EC50: 9.3 µM
HCoV-229E; [3]
  EC50: 11 ± 1 µM
HCoV-229E
  Selectivity Index MTS: >11
[1]
  Cytotoxicity MCC (minimal cytotoxic concentration): >100 µM

## COC(=O)C[C@H](NC(=O)OC(C)(C)C)C(=O)N(Cc1ccc(F)cc1)C1(C(=O)NCc2ccccc2)CCN(C)CC1 [Compound 5]
In vitro
  CC50: 92 ± 4 µM
HCoV-229E; [2]
  EC50: 22 ± 7 µM
HCoV-229E; [3]
  EC50: 22 ± 9 µM
[1]
  Cytotoxicity MCC (minimal cytotoxic concentration): >100 µM
